Assay results taken from PubChem BioAssay (NCI).
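In this assay, cells in 96-well plates receive the compound at five concentrations for 48 hours. Endpoints are linearly interpolated between the surrounding concentrations. TGI marks complete inhibition of growth.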

How the values were obtained:
Experiment in all cases: DTP human tumour cell line panel, 48 h
[1] = tested on: 786-0 renal
[2] = tested on: A498 renal
[3] = tested on: A549 NSCLC
[4] = tested on: ACHN renal
[5] = tested on: CAKI-1 renal
[6] = tested on: CCRF-CEM leukemia
[7] = tested on: COLO 205 colon
[8] = tested on: DLD-1 colon
[9] = tested on: DMS 114 small cell lung
[10] = tested on: DMS 273 small cell lung
[11] = tested on: EKVX NSCLC
[12] = tested on: HCC-2998 colon
[13] = tested on: HCT-116 colon
[14] = tested on: HCT-15 colon
[15] = tested on: HL-60(TB) leukemia
[16] = tested on: HOP-18 NSCLC
[17] = tested on: HOP-62 NSCLC
[18] = tested on: HOP-92 NSCLC
[19] = tested on: HT29 colon
[20] = tested on: IGROV1 ovarian
[21] = tested on: K-562 leukemia
[22] = tested on: KM12 colon
[23] = tested on: KM20L2 colon
[24] = tested on: LOX IMVI melanoma
[25] = tested on: LXFL 529 NSCLC
[26] = tested on: M14 melanoma
[27] = tested on: M19-MEL melanoma
[28] = tested on: MALME-3M melanoma
[29] = tested on: MOLT-4 leukemia
[30] = tested on: NCI-H226 lung
[31] = tested on: NCI-H23 lung
[32] = tested on: NCI-H460 lung
[33] = tested on: NCI-H522 lung
[34] = tested on: OVCAR-3 ovarian
[35] = tested on: OVCAR-4 ovarian
[36] = tested on: OVCAR-5 ovarian
[37] = tested on: OVCAR-8 ovarian
[38] = tested on: RPMI-8226 leukemia
[39] = tested on: RXF 393 renal
[40] = tested on: SF-268 CNS
[41] = tested on: SF-295 CNS
[42] = tested on: SF-539 CNS
[43] = tested on: SK-MEL-2 melanoma
[44] = tested on: SK-MEL-28 melanoma
[45] = tested on: SK-MEL-5 melanoma
[46] = tested on: SK-OV-3 ovarian
[47] = tested on: SN12C renal
[48] = tested on: SNB-19 CNS
[49] = tested on: SNB-75 CNS
[50] = tested on: SNB-78 CNS
[51] = tested on: SW-620 colon
[52] = tested on: TK-10 renal
[53] = tested on: U251 CNS
[54] = tested on: UACC-257 melanoma
[55] = tested on: UACC-62 melanoma
[56] = tested on: UO-31 renal
[57] = tested on: XF 498 CNS
[58] = tested on: BT-549 breast
[59] = tested on: DU-145 prostate
[60] = tested on: HS 578T breast
[61] = tested on: MCF7 breast
[62] = tested on: MDA-MB-231 breast
[63] = tested on: MDA-MB-435
[64] = tested on: MDA-N
[65] = tested on: NCI/ADR-RES ovarian
[66] = tested on: PC-3 prostate
[67] = tested on: SR leukemia
[68] = tested on: T-47D breast

Q: How did the TGI [1] turn out when O=C(Nc1ccccc1-c1nn(C(=S)Nc2ccccc2)c(=S)n(C(=S)Nc2ccccc2)c1=O)C(F)(F)F was run?
A: The TGI was over 100 µM.

Q: And the TGI [2]?
A: Its TGI is over 76.6 µM.

Q: What about the TGI [3] of the same compound?
A: The TGI was over 100 µM.

Q: And the TGI [4]?
A: Its TGI is over 95.6 µM.

Q: What about the TGI [5] of the same compound?
A: The TGI was over 100 µM.

Q: What about the TGI [6] of the same compound?
A: The TGI was 62.1 µM.

Q: What about the TGI [7] of the same compound?
A: The TGI was 44.4 µM.

Q: What about the TGI [8] of the same compound?
A: Its TGI is over 100 µM.

Q: And the TGI [9]?
A: Its TGI is 38.9 µM.

Q: What about the TGI [10] of the same compound?
A: The TGI was over 100 µM.

Q: And the TGI [11]?
A: The TGI was 98.2 µM.

Q: And the TGI [12]?
A: Its TGI is over 72.5 µM.

Q: What about the TGI [13] of the same compound?
A: Its TGI is over 51.4 µM.

Q: What about the TGI [14] of the same compound?
A: Its TGI is over 78.3 µM.

Q: And the TGI [15]?
A: The TGI was 58.5 µM.

Q: What about the TGI [16] of the same compound?
A: Its TGI is over 100 µM.

Q: And the TGI [17]?
A: Its TGI is over 100 µM.

Q: What about the TGI [18] of the same compound?
A: Its TGI is 57.9 µM.

Q: What about the TGI [19] of the same compound?
A: Its TGI is over 78.9 µM.

Q: And the TGI [20]?
A: The TGI was over 100 µM.

Q: What about the TGI [21] of the same compound?
A: Its TGI is over 95.6 µM.

Q: What about the TGI [22] of the same compound?
A: Its TGI is 52 µM.

Q: And the TGI [23]?
A: The TGI was over 100 µM.

Q: And the TGI [24]?
A: Its TGI is over 66.1 µM.

Q: What about the TGI [25] of the same compound?
A: Its TGI is 54 µM.

Q: And the TGI [26]?
A: Its TGI is 53.3 µM.

Q: And the TGI [27]?
A: Its TGI is over 94.9 µM.

Q: What about the TGI [28] of the same compound?
A: Its TGI is over 79.1 µM.

Q: And the TGI [29]?
A: Its TGI is over 77.1 µM.

Q: What about the TGI [30] of the same compound?
A: The TGI was 76 µM.

Q: And the TGI [31]?
A: The TGI was over 31.6 µM.

Q: And the TGI [32]?
A: The TGI was over 100 µM.

Q: And the TGI [33]?
A: The TGI was 58.5 µM.

Q: And the TGI [34]?
A: The TGI was over 72.5 µM.

Q: And the TGI [35]?
A: The TGI was over 31.6 µM.

Q: What about the TGI [36] of the same compound?
A: Its TGI is over 100 µM.

Q: What about the TGI [37] of the same compound?
A: Its TGI is over 90.3 µM.

Q: What about the TGI [38] of the same compound?
A: Its TGI is 50.2 µM.

Q: And the TGI [39]?
A: The TGI was over 100 µM.

Q: What about the TGI [40] of the same compound?
A: Its TGI is over 100 µM.

Q: What about the TGI [41] of the same compound?
A: The TGI was over 100 µM.

Q: What about the TGI [42] of the same compound?
A: Its TGI is over 100 µM.

Q: And the TGI [43]?
A: Its TGI is over 66.7 µM.

Q: And the TGI [44]?
A: Its TGI is over 100 µM.

Q: What about the TGI [45] of the same compound?
A: The TGI was 26 µM.

Q: What about the TGI [46] of the same compound?
A: Its TGI is over 100 µM.

Q: And the TGI [47]?
A: The TGI was over 100 µM.

Q: And the TGI [48]?
A: Its TGI is over 100 µM.

Q: And the TGI [49]?
A: Its TGI is over 88.1 µM.

Q: What about the TGI [50] of the same compound?
A: The TGI was over 100 µM.

Q: What about the TGI [51] of the same compound?
A: Its TGI is over 64.7 µM.

Q: And the TGI [52]?
A: Its TGI is over 96.3 µM.

Q: What about the TGI [53] of the same compound?
A: The TGI was over 70.9 µM.

Q: And the TGI [54]?
A: Its TGI is 31.4 µM.

Q: What about the TGI [55] of the same compound?
A: The TGI was 44.4 µM.

Q: What about the TGI [56] of the same compound?
A: Its TGI is 50.3 µM.

Q: What about the TGI [57] of the same compound?
A: The TGI was 61.5 µM.

Q: Which results are given for NC(N)=Nc1ccc(CC(N)NCC(=O)O)cc1 (stereo not drawn)?
A: TGI [1]: > 25 µM; TGI [2]: > 25 µM; TGI [3]: > 25 µM; TGI [4]: > 25 µM; TGI [58]: > 25 µM; TGI [5]: > 25 µM; TGI [6]: > 25 µM; TGI [7]: > 25 µM; TGI [59]: > 25 µM; TGI [11]: > 25 µM; TGI [12]: > 25 µM; TGI [13]: > 25 µM; TGI [14]: > 25 µM; TGI [15]: > 25 µM; TGI [17]: > 25 µM; TGI [18]: > 25 µM; TGI [60]: > 25 µM; TGI [19]: > 25 µM; TGI [20]: > 25 µM; TGI [21]: > 25 µM; TGI [22]: > 25 µM; TGI [24]: > 25 µM; TGI [26]: > 25 µM; TGI [28]: > 25 µM; TGI [61]: > 25 µM; TGI [62]: > 25 µM; TGI [63]: > 25 µM; TGI [64]: > 25 µM; TGI [29]: > 25 µM; TGI [30]: > 25 µM; TGI [31]: > 25 µM; TGI [33]: > 25 µM; TGI [65]: > 25 µM; TGI [34]: > 25 µM; TGI [35]: > 25 µM; TGI [36]: > 25 µM; TGI [37]: > 25 µM; TGI [66]: > 25 µM; TGI [38]: > 25 µM; TGI [39]: > 25 µM; TGI [40]: > 25 µM; TGI [41]: > 25 µM; TGI [43]: > 25 µM; TGI [44]: > 25 µM; TGI [45]: > 25 µM; TGI [46]: > 25 µM; TGI [47]: > 25 µM; TGI [49]: > 25 µM; TGI [67]: > 25 µM; TGI [51]: > 25 µM; TGI [68]: > 25 µM; TGI [52]: > 25 µM; TGI [53]: > 25 µM; TGI [54]: > 25 µM; TGI [55]: > 25 µM; TGI [56]: > 25 µM
